In data set [1] the test system is HBV. In words: Anti-HBV activity, HepG2.2.15 stable transfected cell line, HBV DNA from secreted virions by realtime PCR. The format is cell-based. The conditions noted are these: Hepatitis B virus, HepG2.2.15, 144 h, HepG2.2.15 cells, 6 days of treatment, HBV DNA from secreted virions; read-out: HepG2 2.15 EC50.
Data set [2] in a line: Cytotoxicity in HepG2 cells, Resazurin viability assay. The conditions noted are these: human, HepG2 cells, HepG2 4 days CC50 (μM), incubated for 4 days, Resazurin assay. Background: Resazurin is reduced to fluorescent resorufin, in cell work by metabolically active cells.
Data set [3] deals with HBV. The data set is described as follows: Anti-HBV activity, HepG2.117 inducibly HBV producing cell line (Tet-off), intracellular HBV DNA by realtime PCR. The conditions noted are these: Hepatitis B virus, HepG2.117, 72 h, HepG2.117 cells, 3 days of treatment, intracellular HBV DNA; read-out: HepG2 117 EC50. The format is cell-based.

Turning to `Cc1c(S(=O)(=O)NC2(C)COC2)cn(C)c1C(=O)Nc1ccc(F)c(C#N)c1` [Compound 152, N-3-Cyano-4-fluoromethyl-4-[(3-methyloxetan-3-yl)sulfamoyl]-1H-pyrrole-2-carboxamide], the EC50 with HBV [1] was 240 nM; with HBV [3], 80 nM. This molecule also came in with a CC50 at 4 days in data set [2] greater than 25 µM.
As to `Cc1c(S(=O)(=O)N[C@H](C)C(F)(F)F)cn(C)c1C(=O)Nc1ccc(F)c(C(F)(F)F)c1` [Compound 153, N-[4-Fluoro-3-(trifluoromethyl)phenyl]-1,3-dimethyl-4-{[(1R)-2,2,2-trifluoro-1-methylethyl]sulfamoyl}-1H-pyrrole-2-carboxamide], the results for the EC50 in the data set on HBV [1] and in the data set with HBV [3] were 270 nM and 150 nM, respectively. In data set [2], this molecule registered a CC50 at 4 days greater than 25 µM.
For `C[C@H](NS(=O)(=O)c1cc(C(=O)Nc2ccc(F)c(F)c2F)n(C)c1)C(F)(F)F` [Compound 154, 1-Methyl-4-{[(1S)-2,2,2-trifluoro-1-methylethyl]sulfamoyl}-N-(2,3,4-trifluorophenyl)-1H-pyrrole-2-carboxamide], in that order: 130 nM, 80 nM and greater than 25 µM.
For `C[C@H](NS(=O)(=O)c1cc(C(=O)Nc2ccc(F)c(Br)c2F)n(C)c1)C(F)(F)F` [Compound 155, N-(3-Bromo-2,4-difluorophenyl)-1-methyl-4-{[(1S)-2,2,2-trifluoro-1-methylethyl]sulfamoyl}-1H-pyrrole-2-carboxamide], in that order: 30 nM, 50 nM and greater than 25 µM.
Taken in the same sequence, the figures for `C[C@H](NS(=O)(=O)c1cc(C(=O)Nc2ccc(F)c(Cl)c2F)n(C)c1)C(F)(F)F` [Compound 156, N-(3-Chloro-2,4-difluorophenyl)-1-methyl-4-{[(1S)-2,2,2-trifluoro-1-methylethyl]sulfamoyl}-1H-pyrrole-2-carboxamide] were 40 nM, 30 nM and greater than 25 µM.
Consider `C[C@@H](NS(=O)(=O)c1cc(C(=O)Nc2ccc(F)c(C#N)c2)n(C)c1)C(F)(F)F` [Compound 157, N-(3-cyano-4-fluoro-phenyl)-1-methyl-4-[[(1R)-2,2,2-trifluoro-1-methylethyl]sulfamoyl]pyrrole-2-carboxamide], for which the concentration for a half-maximal effect (EC50) worked out at 80 nM with HBV [1] and 50 nM in the data set on HBV [3]. For the same molecule, the CC50 at 4 days in data set [2] was greater than 25 µM.
Take `C[C@@H](NS(=O)(=O)c1cc(C(=O)Nc2cccc(C#N)c2)n(C)c1)C(F)(F)F` [Compound 158, N-(3-Cyanophenyl)-1-methyl-4-{[(1R)-2,2,2-trifluoro-1-methylethyl]-sulfamoyl}-1H-pyrrole-2-carboxamide]: the 50% effective concentration (EC50) with HBV [1] was 120 nM; in the data set on HBV [3], 360 nM. In data set [2], this molecule displayed a half-maximal cytotoxic concentration (CC50) at 4 days greater than 25 µM.
On to `C[C@@H](NS(=O)(=O)c1cc(C(=O)Nc2cccc(C(F)(F)F)c2F)n(C)c1)C(F)(F)F` [Compound 159, N-[2-Fluoro-3-(trifluoromethyl)phenyl]-1-methyl-4-{[(1R)-2,2,2-trifluoro-1-methylethyl]sulfamoyl}-1H-pyrrole-2-carboxamide], for which the values for the EC50 in the data set with HBV [1] and with HBV [3] were 90 nM and 810 nM, respectively. The same molecule displayed a CC50 at 4 days in data set [2] greater than 25 µM.
For `C[C@@H](NS(=O)(=O)c1cc(C(=O)Nc2cccc(C#N)c2F)n(C)c1)C(F)(F)F` [Compound 160, N-(3-Cyano-2-fluorophenyl)-1-methyl-4-{[(1R)-2,2,2-trifluoro-1-methylethyl]sulfamoyl}-1H-pyrrole-2-carboxamide], in that order: 160 nM, 130 nM and greater than 25 µM.
For the molecule `Cn1cc(S(=O)(=O)NC2(C)COC2)cc1C(=O)Nc1ccc(F)c(C(C)(F)F)c1` [Compound 161, N-[3-(1,1-Difluoroethyl)-4-fluorophenyl]-1-methyl-4-[(3-methyloxetan-3-yl)sulfamoyl]-1H-pyrrole-2-carboxamide], the EC50 in the data set on HBV [1] is greater than 1000 nM; with HBV [3], 910 nM. The half-maximal cytotoxic concentration (CC50) at 4 days in data set [2] is greater than 25 µM.
As for `Cn1cc(S(=O)(=O)NC(C)(C)C)cc1C(=O)Nc1ccc(F)c(C(C)(F)F)c1` [Compound 162, 4-(tert-Butylsulfamoyl)-N-[3-(1,1-difluoroethyl)-4-fluorophenyl]-1-methyl-1H-pyrrole-2-carboxamide], the figures for the EC50 in the data set with HBV [1] and in the data set with HBV [3] were greater than 1000 nM and 890 nM, respectively. The CC50 at 4 days in data set [2] is greater than 25 µM.
For `Cn1cc(S(=O)(=O)NC(C)(C)C(F)(F)F)cc1C(=O)Nc1cc(Cl)c(F)c(Cl)c1` [Compound 163, N-(3,5-Dichloro-4-fluorophenyl)-1-methyl-4-[(2,2,2-trifluoro-1,1-dimethylethyl)sulfamoyl]-1H-pyrrole-2-carboxamide], the EC50 in the data set on HBV [1] worked out at 180 nM; in the data set on HBV [3] it was 110 nM. The CC50 at 4 days in data set [2] is 14.3 µM.
Take `Cn1cc(S(=O)(=O)NC2CC(F)(F)C2)cc1C(=O)Nc1cc(F)c(F)c(Cl)c1` [Compound 164, N-(3-Chloro-4,5-difluorophenyl)-4-[(3,3-difluorocyclobutyl)sulfamoyl]-1-methyl-1H-pyrrole-2-carboxamide]: the 50% effective concentration (EC50) in the data set with HBV [1] and in the data set with HBV [3] was 130 nM each time. This molecule had a CC50 at 4 days in data set [2] greater than 25 µM.
Turning to `Cn1cc(S(=O)(=O)NC23CC(C2)C3)cc1C(=O)Nc1cc(F)c(F)c(Cl)c1` [Compound 167, 4-(Bicyclo[1.1.1]pent-1-ylsulfamoyl)-N-(3-chloro-4,5-difluorophenyl)-1-methyl-1H-pyrrole-2-carboxamide], the values for the concentration giving a half-maximal response (EC50) in the data set with HBV [1] and in the data set on HBV [3] were 120 nM and 310 nM, respectively. In addition, the CC50 at 4 days in data set [2] is greater than 25 µM.
As to `Cn1cc(S(=O)(=O)NCCC(F)(F)F)cc1C(=O)Nc1cc(F)c(F)c(Cl)c1` [Compound 168, N-(3-Chloro-4,5-difluorophenyl)-1-methyl-4-[(3,3,3-trifluoropropyl)sulfamoyl]-1H-pyrrole-2-carboxamide], the EC50 with HBV [1] is 120 nM; with HBV [3], 320 nM. Moreover, in data set [2], the CC50 at 4 days was greater than 25 µM.
For `C[C@@H](NS(=O)(=O)c1cn(C)c(C(=O)Nc2ccc(F)c(C#N)c2)c1F)C(F)(F)F` [Compound 170, N-(3-Cyano-4-fluorophenyl)-3-fluoro-1-methyl-4-{[(1R)-2,2,2-trifluoro-1-methylethyl]sulfamoyl}-1H-pyrrole-2-carboxamide], in that order: less than 5 nM, 5 nM and greater than 100 µM.
As to `CC(C)NS(=O)(=O)c1cn(C)c(C(=O)Nc2ccc(F)c(C#N)c2)c1F` [Compound 171, N-(3-Cyano-4-fluorophenyl)-3-fluoro-1-methyl-4-[(1-methylethyl)sulfamoyl]-1H-pyrrole-2-carboxamide], the EC50 in the data set with HBV [1] and in the data set on HBV [3] was 20 nM throughout. Besides, the CC50 at 4 days in data set [2] is greater than 25 µM.
For the molecule `CC(C)NS(=O)(=O)c1cc(C(=O)Nc2ccc(F)c(Cl)c2F)n(C)c1` [Compound 172, N-(3-Chloro-2,4-difluorophenyl)-1-methyl-4-[(1-methylethyl)sulfamoyl]-1H-pyrrole-2-carboxamide], the values for the EC50 in the data set on HBV [1] and in the data set on HBV [3] were 100 nM and 80 nM, respectively. Moreover, the CC50 at 4 days in data set [2] was greater than 25 µM.
On to `CC(C)NS(=O)(=O)c1cc(C(=O)Nc2cccc(Cl)c2F)n(C)c1` [Compound 173, N-(3-Chloro-2-fluorophenyl)-1-methyl-4-[(1-methylethyl)sulfamoyl]-1H-pyrrole-2-carboxamide], for which the results for the EC50 in the data set on HBV [1] and with HBV [3] were 210 nM and 320 nM, respectively. Moreover, the cytotoxic concentration (CC50) at 4 days in data set [2] is greater than 25 µM.

By EC50 is commonly meant the concentration at which the effect is half-maximal. A word on the CC50: it is the concentration giving 50% cytotoxicity. Read a low CC50 as harm at low concentration.

These data come from patent US9884818B2, “Sulphamoylpyrrolamide derivatives and the use thereof as medicaments for the treatment of hepatitis B” (Janssen Sciences Ireland UC, priority 2013, dated 2018).
